Measurements from patent US5744499A, “Apoptosis-modulating factors influencing the intracellular concentration of methional/malondialdehyde” (Centre International de Recherches Dermatologiques Galderma, priority 1994, dated 1998).
pIC50: −log10 of the molar value.

Key:
[1] = test system: BAF3-bcl2 cells; test: Induction of DNA fragmentation by methional in BAF3-bcl2 cells ([3H]-thymidine); format: cell-based, mouse
Method: (§1) The cells used were a BAF3 lymphocytic cell line, such as that described above. The BAF3-bcl2 cells corresponded to BAF3 cells transfected by the bcl2 gene. The BAF3-bO cells corresponded to BAF3 cells not transfected by the bcl2 gene. As indicated above, the BAF3-bO cells underwent apoptosis (more than 80% of the cells) in the absence of IL3 for 16 hours. On the other hand, the BAF3-bcl2 cells, which were transfected by the bcl2 gene, evidenced no sign of apoptosis in the absence of IL3. Accordingly, they constituted a good model for determining the apoptosis step blocked in these cells, and its potential correlation with the inhibition of malondialdehyde synthesis.
(§2) The BAF3-bO or BAF3-bcl2 cells were marked by adaptation of the method described in S. Wright et al, J. of Cell. Biochem., 48, 344-355 (1992), by incubating 2.5×10^5 cells/ml with 0.5 μCi [3H]-thymidine for 40 hours at 37° C. After two washings in a culture medium, 2.5×10^6 cells were cultured in the presence of methional. […] The aliquots of the culture medium (1 ml), of the supernatant (0.3 ml), and of the solubilized sediment (0.1 ml) were measured by quantitative analysis in the scintillation counter. The percentage of DNA fragments was calculated in the following manner: […]

[2] = test system: murine B16 Fl melanoma cells; test: Survival of mice grafted with B16 melanoma cells; format: in vivo, mouse; settings: Table 5; three mice; daily injection for 15 days; BCNU 0.1 mg/kg, Compound A 25 mg/kg, Methional 25 mg/kg; control 20.5
Method: At t=0 day, 10^5 murine B16 Fl melanoma cells were injected into B6D2Fl mice (from the IFFA CREDO Company, France).
Table 5 reports the results corresponding to averages of the results obtained on three treated mice.
For the regimens containing multiple compounds, the quantities of each of the compounds used were identical to those of the regimens using the compounds by themselves.
Survival time was recorded beginning at t=0 day, as indicated above.
BCNU corresponds to N,N-Bis(2-chloroethyl)-N-nitrosourea. Compound A corresponds to the compound having formula (9), wherein X is a --OH radical.
Between the two regimens, the latter (to which methional was added) accounted for one-third of the mice surviving more than 60 days. The "average survival time" is the mean of the number of mice dying over the course of the experiment, i.e., within 60 days.
The procedure of the previous example was repeated, but the regimens and numbers of mice treated varied.
With respect to this latter regiment, the quantities corresponded to the quantities of compounds used alone. The percentage of long-term survivors corresponded to the percentage of mice which survived beyond 60 days.

[3] = test system: BAF3 cells; test: DNA fragmentation in BAF3 cells, agarose gel electrophoresis; format: cell-based, mouse; settings: 200-800 μM, medium with IL3, 8 hours
Method: K. L. Collins, J. Marvel, […] A. Lopez-[…]. Exp. Med., 176, 1043-1051 (1992)]. […] After 8 hours of contact, the cells were washed three times in a phosphatized buffered saline medium, pH=7.5 (PBS medium). […] The supernatants were decanted and analyzed as indicated below. For purposes of comparison, the same cultures were grown in a medium, either with IL3 (+IL3) or without IL3 (-IL3). The DNA fragments obtained were analyzed qualitatively using the method described, in particular, in W. D. Jarvis, […], and S. Grant, Proc. Natl. Acad. Sci. USA, 91, 73-77 (1994). The supernatants were treated with ribonuclease A (20 μg/ml) for 1 hour at 37° C., and with the proteinase R (100 μg/ml). The DNA was purified using phenol extraction and precipitated with ethanol. […] After electrophoresis (60V, 3 hours), the gels were stained with ethydium bromide.

[4] = test system: BAF3 cells; test: DNA fragmentation in BAF3 cells, spectrofluorometric analysis (Hoechst 33258); format: cell-based, mouse
Method: 3×10^6 BAF3 cells were grown in 6 ml of a culture medium containing IL3 in Petri dishes in the presence of different concentrations (200-800 μM) of methional or […], a substrate of the aldehyde dehydogenase. After 8 hours of contact, the cells were washed three times in a phosphatized buffered saline medium, pH=7.5 (PBS medium). These cells were lysed in 2 ml 0.1% Triton X-100, 20 mM EDTA (ethylenediaminetetraacetic acid), 5 mM Tris pH 8, and then centrifuged at 30,000 g at 4° C. for 30 minutes. The supernatants were decanted and analyzed as indicated below.
For purposes of comparison, the same cultures were grown in a medium, either with IL3 (+IL3) or without IL3 (-IL3).
Spectrofluorometric analysis was carried out to measure the […] of DNA fragments obtained (<3 kilobases). 1 ml of a solution of bisbenzimide trihydrochloride (Hoechst 33258) (1 μg/ml) in 3 mM sodium chloride, 1 mMd4EDTA, 10 mM Tris, pH=8, was added to 2 ml supernatant. The solutions obtained were analyzed by fluorometry (excitation λ=365 nm, emission λ=460 nm). The quantities of DNA were calculated in relation to highly-purified DNA (0.1 to 1 μh in 2 ml lysis buffer) treated as indicated above and expressed in 10^-9 g DNA collected from 3×10^6 cells.

[5] = test system: BAF3-bO cells; test: Induction of DNA fragmentation by methional in BAF3-bO cells ([3H]-thymidine); format: cell-based, mouse; settings: 400 μM methional, 8 hours; control 7%
Method: as §1, §2

[6] = test system: HeLa cells; test: Effect of metabolites on the growth of HeLa cells; format: cell-based; settings: Homo sapiens, 72 h, three days at 37° C., estimated by protein content, average of 3 or 4 experiments, read-out: IC50 (concentration required to inhibit cell growth by 50%)
Method: HeLa cells (0.5×10^6 per Petri dish) were cultured in 3 ml of a minimum essential Eagle medium containing 10% by weight dialyzed fetal calf serum. After four hours, methional (10 μM-1 mM), methionol (10 μM-20 mM), methylthiopropionic acid (MTPA) (1 μM-20 mM), L-methionine (1 μM-20 mM) or 4-methylthio-2-oxobutanoic acid (MTOB) (1 μM-20 mM) were added to each of the three dishes. After three days at 37° C., the cells were washed twice in a buffered, phosphatized saline medium having a pH of 7.5 (PBS medium) and collected in the same type of buffer.
Cell growth was assessed by measuring protein content (see technique described in O. H. Lowry, N. J. Rosebrouh, A. L. Farr, and R. J. Randall, J. Biol. Chem., 193, 265-275 (1951)) or the DNA content in the lysate using a bisbenzimide trihydrochloride solution (Hoechst 33258) (see W. D. Jarvis, R. N. Kolesnick, F. A. Fornari, R. S. Traylor, D. A. Gewirtz, and S. Grant, Proc. Natl. Acad. Sci. USA, 91, 73-77 (1994)), or by determining […] using 3-(4,5-dimethylthiazol-2-yl)-2,5-diphenyl-tetrazolium bromide (MTT) (see T. Mosmann, J. of Immunology, Methods, 65, 55-63 (1983)).
Each value of is the average of 3 or 4 experiments as estimated by protein content.
IC50 represents the concentration of compound required to inhibit cell growth by 50%.

In the case of `CSCCC=O` [methional, 3-methylthiopropanal], the “percentage of DNA fragments (maximum)” value ([1]; 400 μM methional, 8 hours, control 3%) was 7%, the “elimination of the bcl2 inhibition of apoptosis” value ([1]; methional 50-400 μM) was “did not permit eliminating the inhibition of apoptosis resulting from the bcl2 gene” and the “Average Survival Time” value [2] was 27 days. The “triggering of apoptosis (ladder of DNA fragments of 180 to 200 base pairs on gel)” value [3] was “apoptosis was triggered”, the “quantity of DNA fragments (<3 kilobases)” value ([4]; +IL3, 8 hours contact, methional 200-800 μM (concentration not given)) was 127 10^-9 g DNA/3 × 10^6 cells and the “increase in amount of DNA fragments compared with cells without IL3” value ([4]; cells treated with IL3 and methional) was “comparable to the quantity found when the cells were placed in a medium not containing IL3”. For the same compound, the “percentage of DNA fragments (maximum)” value [5] was 26% and the pIC50 [6] was 4.00.
